# Results published in US11986452B2, “Methods of reducing the risk of heart failure” (Amarin Pharmaceuticals Ireland Limited, priority 2021, dated 2024).
# Key:
# [1] = system: statin-treated patients with established CVD or at high risk for CVD, and hypertriglyceridemia; assay: REDUCE-IT time-to-first-event analysis of adjudicated cardiovascular endpoints (primary, key secondary, secondary, tertiary); format: in vivo, human
# Text: The following study, also referred to as the REDUCE-IT clinical trial, was a large cardiovascular (CV) outcome trial designed to assess CV risk reduction benefit of AMR101 treatment (commercially known as VASCEPA®) versus placebo on the 5-point primary composite endpoint: CV death, non-fatal stroke, non-fatal myocardial infarction (MI), coronary revascularizations, or unstable angina requiring hospitalization.
# A multi-center, prospective, randomized, double-blind, placebo-controlled, parallel-group study was performed to evaluate the effect of AMR101 (4 g per day) on cardiovascular health and mortality in hypertriglyceridemic patients with cardiovascular disease or at high risk for cardiovascular disease. The intended expanded indication of the study was treatment with AMR101 as an add-on to statin therapy to reduce the risk of cardiovascular events in patients with clinical cardiovascular disease or with multiple risk factors for cardiovascular disease.
# The primary objective of this study was, in patients at LDL-C goal while on statin therapy, with established cardiovascular disease (CVD) or at high risk for CVD, and hypertriglyceridemia (e.g., fasting triglycerides (TG) 200 mg/dL and <500 mg/dL), to evaluate the effect of AMR101 4 g daily on time from randomization to first occurrence of any component of the composite of the following major CV events: CV death; nonfatal MI; (including silent MI; electrocardiograms (ECGs) were performed annually for the detection of silent MIs); nonfatal stroke; coronary revascularization; and unstable angina determined to be caused by myocardial ischemia by invasive/non-invasive testing and requiring emergent hospitalization.
# The key secondary objective of this study was to evaluate the effect of AMR101 4 g daily on the time from randomization to the first occurrence of the composite of following major CV events: CV death, nonfatal MI (including silent MI), and nonfatal stroke.
# Other secondary objectives for this study were to evaluate the effect of therapy on time from randomization to the first occurrence of the following individual or composite endpoints: composite of CV death or nonfatal MI (including silent MI); fatal or nonfatal MI (including silent MI); non-elective coronary revascularization represented as the composite of emergent or urgent classifications; CV death; unstable angina determined to be caused by myocardial ischemia by invasive/non-invasive testing and requiring emergent hospitalization; fatal or nonfatal stroke; composite of total mortality, nonfatal MI (including silent MI), or nonfatal stroke; and total mortality.
# Primary Efficacy Endpoint: The primary efficacy endpoint was time from randomization to the first occurrence of the composite of the following clinical events: CV death; nonfatal MI (including silent MI; ECGs were performed annually for the detection of silent MIs); nonfatal stroke; coronary revascularization; and unstable angina determined to be caused by myocardial ischemia by invasive/non-invasive testing and requiring emergent hospitalization. The first occurrence of any of these major adverse vascular events during the follow-up period of the study were included in the incidence.
# Secondary Efficacy Endpoints: The key secondary efficacy endpoint was the time from randomization to the first occurrence of the composite of CV death, nonfatal MI (including silent MI), or nonfatal stroke. […]
# [2] = system: statin-treated patients in the icosapent ethyl group; assay: Example 5: new heart failure by on-treatment EPA tertile (post hoc); format: in vivo, human; details: for New heart failure requiring hospitalization: HR vs lowest on treatment EPA tertile / New heart failure: HR vs lowest on treatment EPA tertile: post hoc, icosapent ethyl group only
# Text: The mechanical or surgical intervention including mechanical circulatory support (e.g., intra-aortic balloon pump, ventricular assist device) and/or mechanical fluid removal (e.g., ultrafiltration, hemofiltration, dialysis).
# New Heart Failure/Heart Failure Not Requiring Hospitalization: is defined as an event that meets all of the following: the patient has an urgent, unscheduled office/practice or emergency department visit for a primary diagnosis of HF, but not meeting the criteria for a HF hospitalization; all signs and symptoms for HF hospitalization must be met as defined in A Heart Failure Hospitalization above; and the patient receives initiation or intensification of treatment specifically for HF, as detailed in the above section with the exception of oral diuretic therapy, which was not sufficient.
# The study design was the same as that described above in Example 1 related to the REDUCE-IT clinical trial.
# Prespecified tertiary endpoints of NHF (HR=0.95; 95% CI, 0.77-1.17; p=0.63) and NHF requiring hospitalization (HR=0.97; 0.77-1.22; p=0.78) from the REDUCE-IT clinical trial were not significant.
# [3] = REDUCE-IT safety: treatment-emergent adverse events, safety population
# Protocol: All adverse events, including observed or volunteered problems, complaints, or symptoms, were recorded on the appropriate CRF. Each adverse event was evaluated for duration, intensity, and causal relationship with the study medication or other factors.
# Adverse Events of Special Interest: Bleeding-related adverse events, glucose control (fasting blood glucose and HbA1c), and indicators of hepatic disorders (e.g., ALT or AST increases >3×ULN, total bilirubin increases of ≥2×ULN) were summarized separately and compared between treatment groups.
# Analysis of Safety: All analyses of safety were conducted on the safety population, which was defined as all randomized patients. The safety assessment was based on the frequency of adverse events, physical exams, vital signs and safety laboratory tests. AEs with new onset during the study between the initiation of study drug and 30 days after the last dose of study drug for each patient was considered treatment-emergent (TEAEs). This included any AE with onset prior to initiation of study drug and increased severity after the treatment initiation.
# This included overall incidence rates (regardless of severity and relationship to study drug), and incidence rates for moderate or severe adverse events. A summary of SAEs and adverse events leading to early discontinuation (for ≥30 days) were presented through data listings. Patients who restarted study drug were included in the summary of AEs leading to discontinuation. Safety laboratory tests and vital signs were summarized by post-treatment change from baseline for each of the parameters using descriptive statistics by treatment group. Those patients with significant laboratory abnormalities were identified in data listings. Additional safety parameters were summarized in data listings.
# [4] = 4 g per day, hierarchical testing
# [5] = 4 g/day, time to first occurrence, ITT, median follow up 4.9 years
# [6] = safety population N = 4089, listed as AMR101
# [7] = serious bleeding TEAE, safety population N = 4089
smiles,measurement,setting,value
"CC/C=C\C/C=C\C/C=C\C/C=C\C/C=C\CCCC(=O)OCC [icosapent ethyl, eicosapentaenoic acid ethyl ester]",Cardiovascular death: RRR,[1]; [4],20%
same,Composite of cardiovascular death or nonfatal myocardial infarction: RRR,[1]; [4],25%
same,"Composite of total mortality, nonfatal myocardial infarction, or nonfatal stroke: reduction",[1]; [4],23%
same,Fatal or nonfatal myocardial infarction: RRR,[1]; [4],31%
same,Fatal or nonfatal stroke: RRR,[1]; [4],28%
same,Total mortality: reduction,[1]; [4],13%
same,Sudden death: reduction,[1]; 4 g/day vs placebo,31%
same,Cardiovascular death: HR vs placebo,"[1]; 4 g/day, ITT",0.80
same,Cardiovascular death: patients with event,"[1]; 4 g/day, ITT",4.3%
same,Total mortality: HR vs placebo,"[1]; 4 g/day, ITT",0.87
same,Total mortality: patients with event,"[1]; 4 g/day, ITT",6.7%
same,"Key secondary composite endpoint (CV death, nonfatal MI, or nonfatal stroke): patients with event",[1]; [5],11.2%
same,"Primary composite endpoint (CV death, nonfatal MI, nonfatal stroke, coronary revascularization, or unstable angina): patients with event",[1]; [5],17.2%
same,Cardiac Arrest: HR vs placebo,[1]; tertiary endpoint,0.52
same,Coronary Revascularization: HR vs placebo,[1]; tertiary endpoint,0.66
same,Elective Revascularization: HR vs placebo,[1]; tertiary endpoint,0.68
same,Emergent Revascularization: HR vs placebo,[1]; tertiary endpoint,0.62
same,Ischemic Stroke: HR vs placebo,[1]; tertiary endpoint,0.64
same,New Heart Failure Requiring Hospitalization: HR vs placebo,[1]; tertiary endpoint,0.97
same,New Heart Failure: HR vs placebo,[1]; tertiary endpoint,0.95
same,Primary Endpoint in Patients with Diabetes at Baseline: HR vs placebo,[1]; tertiary endpoint,0.77
same,Salvage Revascularization: HR vs placebo,[1]; tertiary endpoint,0.00
same,Sudden Cardiac Death: HR vs placebo,[1]; tertiary endpoint,0.69
same,Urgent Revascularization: HR vs placebo,[1]; tertiary endpoint,0.66
same,Primary Endpoint in Patients with Diabetes at Baseline: patients with event,"[1]; tertiary endpoint, 4 g/day",(18.1%)
same,Sudden Cardiac Death: patients with event,"[1]; tertiary endpoint, 4 g/day",(1.5%)
same,Achieved EPA level with statistically and clinically meaningful risk reductions in NHF,[2]; EPA tertile analyses within icosapent ethyl group,above 104 μg/mL
same,New heart failure requiring hospitalization: HR vs lowest on treatment EPA tertile,[2]; middle EPA tertile,0.47
same,New heart failure: HR vs lowest on treatment EPA tertile,[2]; middle EPA tertile,0.55
same,New heart failure requiring hospitalization: HR vs lowest on treatment EPA tertile,[2]; upper EPA tertile,0.45
same,New heart failure: HR vs lowest on treatment EPA tertile,[2]; upper EPA tertile,0.41
same,Adverse event rate: anemia,[3]; 4 g/day,4.7%
same,Adverse event rate: atrial fibrillation,[3]; 4 g/day,5.3%
same,Adverse event rate: diarrhea,[3]; 4 g/day,9%
same,Adverse event rate: gastrointestinal adverse events,[3]; 4 g/day,33.0%
same,Adverse event rate: peripheral edema,[3]; 4 g/day,6.5%
same,Atrial fibrillation or flutter requiring hospitalization (prespecified adjudicated tertiary endpoint),[3]; 4 g/day,3.1%
same,Tolerability; rates of serious adverse events versus placebo,[3]; in vivo,well tolerated
same,Serious TEAE,[3]; safety population N = 4089,(30.6%)
same,Serious TEAE (≥2%): Pneumonia,[3]; safety population N = 4089,2.6%
same,Serious TEAE Leading to Death,[3]; safety population N = 4089,(2.3%)
same,Serious TEAE Leading to Withdrawal of Study Drug,[3]; safety population N = 4089,(2.2%)
same,Serious bleeding TEAE: Bleeding related disorders,[3]; safety population N = 4089,(2.7%)
same,Serious bleeding TEAE: Central nervous system bleeding,[3]; safety population N = 4089,(0.3%)
same,Serious bleeding TEAE: Gastrointestinal bleeding,[3]; safety population N = 4089,(1.5%)
same,Serious bleeding TEAE: Other bleeding,[3]; safety population N = 4089,(1.0%)
same,Subjects with at Least One TEAE,[3]; safety population N = 4089,(81.8%)
same,TEAE Leading to Withdrawal of Study Drug,[3]; safety population N = 4089,(7.9%)
same,Serious bleeding TEAE: Bleeding related disorders,[3]; [6],2.7%
same,Serious bleeding TEAE: Central nervous system bleeding,[3]; [6],0.3%
same,Serious bleeding TEAE: Gastrointestinal bleeding,[3]; [6],1.5%
same,"Patients with Bleeding-Related Disorders, %",[3]; [7],(2.7%)
same,"Patients with Bleeding-Related Disorders, number",[3]; [7],111
